Data as given in patent US20250302799A1, “PHARMACEUTICAL COMPOSITION CONTAINING FRAXETIN FOR PREVENTION OR TREATMENT OF ENDOMETRIOSIS” (Research & Business Foundation Sungkyunkwan University, priority 2024, published 2025).

Assays:
VK2/E6E7 cells = test: ROS generation by DCFH-DA flow cytometry; format: cell-based, human
Experimental: (§1) To assess the inhibitory effect of fraxetin on ROS generation in endometrial cells, the inventors used flow cytometry to measure ROS levels. In brief, endometriosis cells were stained with DCFH-DA (final concentration 10 μM) for 30 minutes and treated with 50 μM fraxetin in experimental groups, with or without 2 mM N-acetylcysteine (NAC; Cat No. A0737, Sigma), in a 37° C. incubator. Afterward, the cells were washed with PBS, and ROS levels were detected by measuring fluorescence DCF via flow cytometry.

End1/E6E7 cells = test: ROS generation by DCFH-DA flow cytometry; format: cell-based, human
Experimental: as §1

**Q.** Which results are given for `COc1cc2ccc(=O)oc2c(O)c1O` [fraxetin]?
**A.** relative ROS generation (VK2/E6E7 cells; VK2/E6E7, Example 7 comparison fraxetin vs dienogest): > 200%; ROS generation compared to control (VK2/E6E7 cells; VK2/E6E7, fraxetin-treated): up to 1.5 fold; relative ROS generation (End1/E6E7 cells; End1/E6E7, Example 7 comparison fraxetin vs dienogest): over 150%; ROS generation compared to control (End1/E6E7 cells; End1/E6E7, fraxetin-treated): up to 1.5 fold
